Source: US20200407717A1, “METHODS OF MODULATING ANTISENSE ACTIVITY” (Ionis Pharmaceuticals, Inc., priority 2018, published 2020)
e = 2'-O-(2-methoxyethyl) (MOE); d = 2'-deoxy (DNA)

System: Drosha mRNA
Assay: Antisense activity by RT-qPCR, Drosha, A431 cells
Format: cell-based, Human
Protocol: A431 cells were grown at 10,000 cells per well and pre-treated with a variety of growth factors to determine if the addition of exogenous growth factors affects antisense activity or uptake of modified antisense oligonucleotides in a cell. The growth factors used were EGF, insulin growth factor (IGF), transforming growth factor (TGF), […] (VEGF), hepatocyte growth factor (HGF), platelet growth factor (PGF) and fibroblasts growth factor (FGF). To test antisense activity, cells were treated for 4 hours with a growth factor or vehicle alone, and then treated with compound no. 25690 (complementary to Drosha), compound no. 395254 (complementary to Malat1), or vehicle alone. RNA was isolated from the cells and Drosha or Malat1 RNA levels were measured by RT-qPCR. Human primer probe set 13816 (forward sequence […], designated herein as SEQ ID NO: 3; reverse sequence […], designated herein as SEQ ID NO: 4; probe sequence […], designated herein as SEQ ID NO: 5) was used to measure Drosha mRNA levels and primer probe set RTS2736 (forward sequence […], designated herein as SEQ ID NO: 6; reverse sequence […], designated herein as SEQ ID NO: 7; probe sequence TGCCACATCGCCACCCCGT, designated herein as SEQ ID NO: 8) was used to measure Malat1 RNA levels. Drosha and Malat1 RNA levels were normalized to total RNA content, as measured by RIBOGREEN®. Results are presented in the tables below as normalized RNA levels, relative to untreated control cells.
A431 cells were treated with EGF or TGF at 200 ng/mL in the presence or absence of 1 μM of the EGFR tyrosine kinase inhibitor PD174265. The cells were then treated with compound no. 25690 or compound no. 395254 as in Example 8. Total RNA was isolated and analyzed by RT-qPCR, as in Example 8.
Following siRNA treatment, cells were treated with compound no. 25690 or compound no. 395254 in the presence or absence of EGF. 16 hours after treatment with a PS-ASO with or without EGF, cells were harvested, and RNA levels were analyzed via RT-qPCR as in Example 8.

## AGGAAGGAAGCTGGCGATCT (sugars from the 5' end e5 d10 e5, all phosphorothioate, methylation of C not given here) [compound 25690]
19.5 nM, Control
  Drosha mRNA (% Control): 100.0 % Control
19.5 nM, EGF
  Drosha mRNA (% Control): 100.0 % Control
19.5 nM, TGF
  Drosha mRNA (% Control): 100.0 % Control
39 nM, Control
  Drosha mRNA (% Control): 104.3 % Control
39 nM, EGF
  Drosha mRNA (% Control): 98.0 % Control
39 nM, TGF
  Drosha mRNA (% Control): 95.1 % Control
78 nM, Control
  Drosha mRNA (% Control): 100.3 % Control
78 nM, EGF
  Drosha mRNA (% Control): 98.0 % Control
78 nM, TGF
  Drosha mRNA (% Control): 80.2 % Control
97.7 nM, Control
  Drosha mRNA (% Control): 100.0 % Control
97.7 nM, Control Luciferase siRNA
  Drosha mRNA (% Control): 100.0 % Control
97.7 nM, Control Luciferase siRNA, Table 26
  Drosha mRNA (% Control): 100.0 % Control
97.7 nM, Control luciferase + EGF
  Drosha mRNA (% Control): 100.0 % Control
97.7 nM, Control, Table 20
  Drosha mRNA (% Control): 100.0 % Control
97.7 nM, EGF
  Drosha mRNA (% Control): 100.0 % Control
97.7 nM, EGF+PD174265
  Drosha mRNA (% Control): 100.0 % Control
97.7 nM, EGFR siRNA-1
  Drosha mRNA (% Control): 100.0 % Control
97.7 nM, EGFR siRNA-2
  Drosha mRNA (% Control): 100.0 % Control
97.7 nM, EGFR siRNA-2 + EGF
  Drosha mRNA (% Control): 100.0 % Control
97.7 nM, EGFR siRNA-2, Table 26
  Drosha mRNA (% Control): 100.0 % Control
97.7 nM, TGF
  Drosha mRNA (% Control): 100.0 % Control
97.7 nM, TGF+PD174265
  Drosha mRNA (% Control): 100.0 % Control
156.25 nM, Control
  Drosha mRNA (% Control): 103.8 % Control
156.25 nM, EGF
  Drosha mRNA (% Control): 70.7 % Control
156.25 nM, TGF
  Drosha mRNA (% Control): 64.6 % Control
195 nM, Control
  Drosha mRNA (% Control): 110.0 % Control
195 nM, Control Luciferase siRNA
  Drosha mRNA (% Control): 81.4 % Control
195 nM, Control Luciferase siRNA, Table 26
  Drosha mRNA (% Control): 99.2 % Control
195 nM, Control luciferase + EGF
  Drosha mRNA (% Control): 110.2 % Control
195 nM, Control, Table 20
  Drosha mRNA (% Control): 110.0 % Control
195 nM, EGF
  Drosha mRNA (% Control): 98.2 % Control
195 nM, EGF+PD174265
  Drosha mRNA (% Control): 102.4 % Control
195 nM, EGFR siRNA-1
  Drosha mRNA (% Control): 103.0 % Control
195 nM, EGFR siRNA-2
  Drosha mRNA (% Control): 88.0 % Control
195 nM, EGFR siRNA-2 + EGF
  Drosha mRNA (% Control): 107.2 % Control
195 nM, EGFR siRNA-2, Table 26
  Drosha mRNA (% Control): 105.2 % Control
195 nM, TGF
  Drosha mRNA (% Control): 95.2 % Control
195 nM, TGF+PD174265
  Drosha mRNA (% Control): 108.0 % Control
312.5 nM, Control
  Drosha mRNA (% Control): 92.7 % Control
312.5 nM, EGF
  Drosha mRNA (% Control): 72.8 % Control
312.5 nM, TGF
  Drosha mRNA (% Control): 61.1 % Control
391 nM, Control
  Drosha mRNA (% Control): 99.7 % Control
391 nM, Control Luciferase siRNA
  Drosha mRNA (% Control): 67.0 % Control
391 nM, Control Luciferase siRNA, Table 26
  Drosha mRNA (% Control): 100.0 % Control
391 nM, Control luciferase + EGF
  Drosha mRNA (% Control): 100.0 % Control
391 nM, Control, Table 20
  Drosha mRNA (% Control): 99.3 % Control
391 nM, EGF
  Drosha mRNA (% Control): 89.4 % Control
391 nM, EGF+PD174265
  Drosha mRNA (% Control): 103.3 % Control
391 nM, EGFR siRNA-1
  Drosha mRNA (% Control): 78.9 % Control
391 nM, EGFR siRNA-2
  Drosha mRNA (% Control): 83.1 % Control
391 nM, EGFR siRNA-2, Table 26
  Drosha mRNA (% Control): 100.0 % Control
391 nM, TGF
  Drosha mRNA (% Control): 85.2 % Control
391 nM, TGF+PD174265
  Drosha mRNA (% Control): 91.2 % Control
625 nM, Control
  Drosha mRNA (% Control): 90.9 % Control
625 nM, EGF
  Drosha mRNA (% Control): 57.2 % Control
625 nM, TGF
  Drosha mRNA (% Control): 50.8 % Control
781 nM, Control
  Drosha mRNA (% Control): 88.4 % Control
781 nM, Control Luciferase siRNA
  Drosha mRNA (% Control): 56.6 % Control
781 nM, Control Luciferase siRNA, Table 26
  Drosha mRNA (% Control): 77.5 % Control
781 nM, Control luciferase + EGF
  Drosha mRNA (% Control): 60.8 % Control
781 nM, Control, Table 20
  Drosha mRNA (% Control): 87.2 % Control
781 nM, EGF
  Drosha mRNA (% Control): 81.4 % Control
781 nM, EGF+PD174265
  Drosha mRNA (% Control): 83.6 % Control
781 nM, EGFR siRNA-1
  Drosha mRNA (% Control): 62.3 % Control
781 nM, EGFR siRNA-2
  Drosha mRNA (% Control): 64.8 % Control
781 nM, EGFR siRNA-2 + EGF
  Drosha mRNA (% Control): 98.4 % Control
781 nM, EGFR siRNA-2, Table 26
  Drosha mRNA (% Control): 89.8 % Control
781 nM, TGF
  Drosha mRNA (% Control): 67.2 % Control
781 nM, TGF+PD174265
  Drosha mRNA (% Control): 87.2 % Control
1250 nM, Control
  Drosha mRNA (% Control): 75.7 % Control
1250 nM, EGF
  Drosha mRNA (% Control): 52.8 % Control
1250 nM, TGF
  Drosha mRNA (% Control): 43.4 % Control
1563 nM, Control
  Drosha mRNA (% Control): 83.2 % Control
1563 nM, Control Luciferase siRNA
  Drosha mRNA (% Control): 49.2 % Control
1563 nM, Control Luciferase siRNA, Table 26
  Drosha mRNA (% Control): 70.2 % Control
1563 nM, Control luciferase + EGF
  Drosha mRNA (% Control): 57.6 % Control
1563 nM, Control, Table 20
  Drosha mRNA (% Control): 76.3 % Control
1563 nM, EGF
  Drosha mRNA (% Control): 74.7 % Control
1563 nM, EGF+PD174265
  Drosha mRNA (% Control): 68.9 % Control
1563 nM, EGFR siRNA-1
  Drosha mRNA (% Control): 56.0 % Control
1563 nM, EGFR siRNA-2
  Drosha mRNA (% Control): 61.4 % Control
1563 nM, EGFR siRNA-2 + EGF
  Drosha mRNA (% Control): 79.4 % Control
1563 nM, EGFR siRNA-2, Table 26
  Drosha mRNA (% Control): 80.3 % Control
1563 nM, TGF
  Drosha mRNA (% Control): 65.9 % Control
1563 nM, TGF+PD174265
  Drosha mRNA (% Control): 78.7 % Control
2500 nM, Control
  Drosha mRNA (% Control): 63.6 % Control
2500 nM, EGF
  Drosha mRNA (% Control): 42.8 % Control
2500 nM, TGF
  Drosha mRNA (% Control): 40.1 % Control
3125 nM, Control
  Drosha mRNA (% Control): 66.6 % Control
3125 nM, Control Luciferase siRNA
  Drosha mRNA (% Control): 40.7 % Control
3125 nM, Control Luciferase siRNA, Table 26
  Drosha mRNA (% Control): 61.6 % Control
3125 nM, Control luciferase + EGF
  Drosha mRNA (% Control): 40.8 % Control
3125 nM, Control, Table 20
  Drosha mRNA (% Control): 67.2 % Control
3125 nM, EGF
  Drosha mRNA (% Control): 55.9 % Control
3125 nM, EGF+PD174265
  Drosha mRNA (% Control): 62.7 % Control
3125 nM, EGFR siRNA-1
  Drosha mRNA (% Control): 51.4 % Control
3125 nM, EGFR siRNA-2
  Drosha mRNA (% Control): 54.6 % Control
3125 nM, EGFR siRNA-2 + EGF
  Drosha mRNA (% Control): 75.4 % Control
3125 nM, EGFR siRNA-2, Table 26
  Drosha mRNA (% Control): 70.6 % Control
3125 nM, TGF
  Drosha mRNA (% Control): 47.2 % Control
3125 nM, TGF+PD174265
  Drosha mRNA (% Control): 64.2 % Control
5000 nM, Control
  Drosha mRNA (% Control): 47.6 % Control
5000 nM, EGF
  Drosha mRNA (% Control): 33.0 % Control
5000 nM, TGF
  Drosha mRNA (% Control): 31.9 % Control
